Experimental findings from patent publication US12247973B2, “Plasma membrane citrate transporter for use in the diagnosis and treatment of cancer” (Universitätsklinikum Regensburg, priority 2014, dated 2025) are described below.

The target in one assay is T1, pmCiC (Homo sapiens, UniProt P53007).
T1 construct: expressed in transfected cells
Nature of the assay: pmCiC expressed in oocytes, two electrodes voltage clamp, citrate-induced current. Type of assay: cell-based. The method, then: FIG. 13. Oocytes were injected with either pmCiC cDNA (A) or water (B).
1. pmCiC expression in oocytes—two electrodes voltage clamp (FIG. 13)
We have expressed pmCiC in oocytes and induced citrate inward current by introducing citrate into extracellular media. […] This reduction was irreversible, as subsequent application of citrate after gluconate removal from the media was not able to restore the primary response.

The next assay relates to benign PNT2-C2 cells. Nature of the assay: Patch clamp, citrate-induced current in PNT2-C2 cells. Type of assay: cell-based, human. The following applies: 10 mM gluconate, 10 mM citrate. The method, then:
(§1) FIG. 14. Patch clamp recordings were performed on PC-3M (A) and PNT2-C2 (B) cells. […] Importantly, reduction in citrate-induced current in the presence of gluconate was irreversible. […] The effect of reduced citrate-induced current was greater in the case of PC-3M cells versus PNT2-C2 cells.
(§2) 2. Patch clamp on human prostate cancer PC-3M and benign PNT2-C2 cells (FIG. 14)
(§3) Extracellular application of citrate induced inward current in both cell lines as described earlier. […] As in the case of oocytes, gluconate inhibition of citrate-induced current was irreversible. Repeated application of citrate on PC-3M cells has been previously shown not to cause any reduction in citrate current (Mycielska et al., 2005).

A further assay relates to pmCiC mRNA. Nature of the assay: RealTime PCR, pmCiC mRNA expression in PC-3M cells. Type of assay: cell-based, human. Particulars: media with citrate plus 5 mM gluconate vs citrate only. The method, then:
(§4) FIG. 15. Metastatic human prostate cancer PC-3M cells were grown with extracellular citrate in the presence or absence of gluconate (5 mM). RealTime PCR was performed to assess changes to the mRNA expression level of pmCiC and mCiC.
(§5) 3. Effects of extracellular gluconate on pmCiC mRNA expression (FIG. 15)
(§6) We have studied the effect of gluconate in the extracellular media supplemented with citrate on the expression changes of pmCiC and mCiC as compared to the control conditions where the cells were incubated with extracellular citrate only. […] On the other hand, there was a significant mCiC mRNA increase, which would indicate increased mitochondrial activity to maintain intracellular citrate level.

The test system of the next assay is mCiC mRNA. Nature of the assay: RealTime PCR, mCiC mRNA expression in PC-3M cells. The following applies: media with citrate plus 5 mM gluconate vs citrate only. Format: cell-based, human. As to the method: as §4, §5, §6
The subject of assay [1] is human prostate cancer PC-3M cells. Nature of the assay: Patch clamp, citrate-induced current in PC-3M cells. Type of assay: cell-based. The method, then: as §1, §2, §3
The test system is the same in assay [2]. Description: Survival of PC-3M cells under stress conditions, MTT assay. Format: cell-based. Particulars: serum-free media with 0.5 g/L glucose. As to the method:
FIG. 16. Metastatic human prostate cancer PC-3M cells were grown in RPMI media supplemented with 0.5 g/L glucose and glutamine. Their survival rate was measured after 48 h and 72 h using an MTT assay. The control depicts survival of the cells with no extracellular citrate or glutamate.
4. Effect of gluconate on the survival of human prostate cancer PC-3M cells (16)
In general terms: Tetrazolium dyes change colour on reduction, which living cells bring about.

Assay [3] has as its system PC-3M cells. Description: Flow cytometry-based cell division (cell cycle) study. More on the design: species or system human. Particulars: PC-3M cells cultured with supplemented citrate, normoxic. As to the method:
(§7) FIG. 3. Glycolytic activity and amino acid release. (A) Amount of glucose consumed and lactate released by PC-3M cells grown for 24 h with or without 200 μM citrate. (**P<0.01; n=5). (B) Concentrations of glycine, alanine and proline in the supernatants of PC-3M cells grown for 72 h with or without 200 μM citrate. (*P<0.05, **P<0.01; n=5). (C) Influence of extracellular citrate on the intracellular ratio of 13C-labeled to unlabelled free amino acids. PC-3M cells were incubated for 72h in media supplemented with [U-^13C]glucose with or without 200 μM unlabelled citrate, the ratio of ^13C incorporation into amino acids is shown. (*P<0.05, ***P<0.005; n=5). (D) Cell division in the presence or absence of extracellular citrate under normoxic conditions determined by flow cytometry. (*P<0.05, **P<0.01; n=6).
An increase in the synthesis of amino acids in the presence of extracellular citrate prompted cell division testing. […] Therefore, metabolic changes induced by extracellular citrate affect metabolism to an extent that impacts cellular processes such as cell division.
Studies were performed as before^28. […] ROS production was detected with dihydrorhodamine 123 (Molecular Probes, Darmstadt, Germany). […] At least 10,000 live cells were measured per sample. Dead cells were detected using the Aqua Live/Dead cell kit (Molecular Probes).
For orientation: In flow cytometry, cells or beads pass a laser one at a time.

The test system of a further assay is normal PNT2-C2 cells. Description: ROS synthesis by flow cytometry in PNT2-C2 cells. Type of assay: cell-based, human. Particulars: extracellular citrate. As to the method: FIG. 2. Impact of extracellular citrate on Krebs cycle activity. PC-3M cells were incubated for 72 h with 25 mM [U-13C]glucose with or without the addition of 200 μM unlabelled citrate. (A) Differences in the ratio of uniform ^13C incorporation into fully labelled Krebs cycle intermediates. (*P<0.05, ***P<0.005; n=5). (B) Differences in ROS synthesis determined by flow cytometry for PC-3M (left) and PNT2-C2 (right) cells. Cells were incubated in media containing FCS, dialysed FCS+200 μM citrate, or dialysed serum only. Shown are geometric means±SD. (*P<0.05; n=6-9). […] Changes in mCiC in mitochondrial protein derived from PNT2-C2 cells was also determined under normoxic conditions (right). […]
Changes in Krebs cycle activity were also determined by measuring the absolute amounts determined as a normalized response of the studied substrates (unlabelled and total ^13C depicting all substrates with any number of labelled carbons) in the presence or absence of unlabelled extracellular citrate (FIG. 7). […] Using flow cytometry the inventors also determined that ROS levels in PC-3M cells grown with extracellular citrate were decreases by about 20%, compared to cells grown in citrate-depleted dialysed serum (FIG. 2B); use of normal non-dialysed serum also reduces ROS levels. […]
Studies were performed as before^28. […] ROS production was detected with dihydrorhodamine 123 (Molecular Probes, Darmstadt, Germany). […]

Assay [4] deals with PC-3M cells. Description: Glucose uptake and lactate release in media of PC-3M cells. Format: cell-based, human. The following applies: 200 μM citrate, 24 h. As to the method:
as §7
To assess glycolysis the inventors measured (unlabelled) glucose uptake and lactate release in the media from PC-3M cells incubated±200 μM citrate for 24 h. […] This effect is most likely related to increased conversion of pyruvate to lactate because of decreased mitochondrial citrate synthesis.
Metabolites were extracted with 80% methanol and measured by HPLC-ESI-MS/MS on an AB SCI EX (Framingham, MA, USA) Q TRAP™ 4000 system. […] Lactate and glucose in the media were measured as previously described^27.

T1 sequence (P53007 with tags, fused parts or gaps limits assumed): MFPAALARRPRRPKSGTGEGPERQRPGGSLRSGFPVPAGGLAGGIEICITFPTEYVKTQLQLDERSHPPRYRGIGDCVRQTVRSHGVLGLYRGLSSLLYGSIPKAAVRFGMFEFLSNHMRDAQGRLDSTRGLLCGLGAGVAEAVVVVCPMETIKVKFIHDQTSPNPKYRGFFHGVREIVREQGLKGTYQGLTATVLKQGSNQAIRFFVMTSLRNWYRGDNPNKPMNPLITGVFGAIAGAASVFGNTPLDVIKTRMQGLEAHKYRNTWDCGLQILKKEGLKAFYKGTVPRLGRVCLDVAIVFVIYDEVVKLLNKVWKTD

For `O=C(O)[C@H](O)[C@@H](O)[C@H](O)[C@H](O)CO` [gluconate], the “reversibility of the reduction of citrate-induced current” value at pmCiC (citrate applied again after gluconate removal from the media) was “irreversible”. Moreover, the “citrate-induced current in the presence of gluconate” value is recorded as “significantly decreased” on pmCiC (oocytes injected with pmCiC cDNA, gluconate applied extracellularly); “decreased” in the assay with benign PNT2-C2 cells; “decreased” in [1] (PC-3M cells, 10 mM gluconate, 10 mM citrate). In addition, in the assay on pmCiC mRNA, the “pmCiC mRNA expression” value is recorded as “significantly increased”. Moreover, in the assay on mCiC mRNA, the “mCiC mRNA expression” value was “significantly increased”. Further, the “reversibility of gluconate inhibition of citrate-induced current” value in [1] (PC-3M cells, 10 mM gluconate) is “irreversible”. Moreover, the “effect of repeated application of gluconate on citrate-induced current” value in assay [1] (repeated application) was “further citrate-induced current reduction”. In addition, the “survival of cells in the presence of extracellular citrate and gluconate” value in assay [2] (200 μM citrate, 48 h and 72 h) is reported as “protective effect of extracellular citrate is abolished”. Further, the “cell survival with gluconate in the absence of extracellular citrate” value in assay [2] (no citrate) was “no effect on cell survival”.

With `O=C(O)CC(O)(CC(=O)O)C(=O)O` [citrate], the “cell cycle phase distribution” value with PC-3M cells [3] was “sharp increase in the G2/M phase”. Besides, the ROS synthesis result with normal PNT2-C2 cells was “did not affect ROS synthesis”. Further, in [2] (200 μM citrate), the “survival of cancer cells under stress conditions with extracellular citrate” value is “increases survival”. The “lactate production (absolute amount of lactate per media volume)” value with PC-3M cells [4] is “unaffected”.
